From patent US5118681A (priority 1989, dated 1992)
In brackets after ≈: the same amount, converted by molar mass. Where two headings read alike, the source gives them in different places.

Key:
[1] = test system: A.n; experiment: Minimum Inhibitory Concentration Test, alternate (Table 4), A.n; format: cell-based, Aspergillus niger; details: Aspergillus niger, TSB, 72 hours
Procedure: (§1) A 125 μl aliquot of 10,000 ppm test compound in acetone was added to 4.88 ml of TSB to provide a 250 ppm solution. From this solution, 100 μL was transferred to the first row of two microtiter plate columns. Both replicates and five additional compounds were all serially diluted 1:1 to a final concentration of 0.8 ppm in TSB.
(§2) Inoculation was accomplished by diluting a 24 hr Ps fl culture, four mls per 36 mls of phosphate buffer solution. A Dynatech autoinoculator was used to transfer 1.5 μl of this cell suspension to the microtiter plates. The plates were incubated at 30° C. for 3 days before the lowest concentration at which no growth occurs was recorded in the database. The SOK data and MIC test data on Ps.fl, Ps.ae, E.c, and S.a. bacteria and Candida albicans (C.alb), A.n and A.p fungi are listed in Table 4.

[2] = test system: Pseudomonas fluorescens; experiment: Minimum Inhibitory Concentration Test, alternate (Table 4), Ps.fl; format: cell-based; details: Pseudomonas fluorescens, TSB, 72 hours, 30° C
Procedure: as §1, §2

[3] = test system: Pseudoperonospora cubensis; experiment: whole plant or invertebrate; format: in vivo; details: Pseudoperonospora cubensis, in Cucumis sativus, 168 h; read-out: % control CDM
[4] = test system: Piricularia oryzae; experiment: whole plant or invertebrate; format: in vivo; details: Pyricularia oryzae, read-out: % control RB
[5] = test system: Pellicularia filamentosa (f. sp. sasiki); experiment: whole plant or invertebrate; format: in vivo; details: 120 h; read-out: % control RSB
[6] = test system: Phytophthora infestans; experiment: whole plant or invertebrate; format: in vivo; details: Phytophthora infestans, in Solanum lycopersicum, 96 h, read-out: % control TLB
[7] = test system: Erysiphe graminis (f. sp. tritici); experiment: whole plant or invertebrate; format: in vivo; details: Blumeria graminis; read-out: % control WPM
[8] = test system: Puccinia recondita (f. sp. tritici Races PKB and PLD); experiment: whole plant or invertebrate; format: in vivo
[9] = Puccinia recondita, 240 h; read-out: % control WLR

CCCCCCCCNC(=O)/C=C\SC(C(=O)Nc1nccs1)C(=O)OCC (stereo not drawn) [Example 25, N-n-octyl-cis-3-{2-[ethyl-N-(2-thiazoyl)malonamido]thio}acrylamide]
MIC [1]: > 500 µg/mL
MIC [2]: > 500 µg/mL
pest or weed control at 200 ppm [3]: 100%
pest or weed control at 200 ppm [4]: 0%
pest or weed control at 200 ppm [5]: 50%
pest or weed control at 200 ppm [6]: 80%
pest or weed control at 200 ppm [7]: 0%
pest or weed control at 200 ppm [8, 9]: 75%

CCCCCCCCNC(=O)/C=C\SC(C(=O)NCc1cccc(C)c1)C(=O)OCC (stereo not drawn) [Example 40, N-n-octyl-cis-3-{2-[ethyl-N-(3-methylbenzyl)malonamido]thio}acrylamide]
MIC [1]: 125 to 250 µg/mL (≈ 279 to 557 µM)
MIC [2]: > 500 µg/mL
pest or weed control at 100 ppm [3]: 99%
pest or weed control at 100 ppm [4]: 50%
pest or weed control at 100 ppm [5]: 0%
pest or weed control at 100 ppm [6]: 100%
pest or weed control at 100 ppm [7]: 0%
pest or weed control at 100 ppm ([8]; Puccinia recondita, 240 h, read-out: % control WLR): 75%

CCCCCCCCNC(=O)/C=C\SC(C(=O)NCc1ccc([N+](=O)[O-])cc1)C(=O)OCC (stereo not drawn) [Example 64, N-n-octyl-cis-3-{2-[ethyl-N-(4-nitrobenzyl)malonamido]thio}acrylamide]
MIC [1]: > 250 µg/mL
MIC [2]: > 250 µg/mL
pest or weed control at 100 ppm [3]: 100%
pest or weed control at 100 ppm [4]: 0%
pest or weed control at 100 ppm [5]: 0%
pest or weed control at 100 ppm [6]: 0%
pest or weed control at 100 ppm [7]: 50%
pest or weed control at 100 ppm [8, 9]: 50%

CCCCCCCCNC(=O)/C=C\SC(C(C)=O)C(=O)Nc1ccccc1C (stereo not drawn) [Example 57, N-n-octyl-cis-3-{2-[N-(2-methylphenyl)acetoacetamido]thio}acrylamide]
MIC [1]: 250 µg/mL (≈ 618 µM)
MIC [2]: > 500 µg/mL
pest or weed control at 100 ppm [3]: 0%
pest or weed control at 100 ppm [4]: 80%
pest or weed control at 100 ppm [5]: 100%
pest or weed control at 100 ppm [6]: 0%
pest or weed control at 100 ppm [7]: 50%
pest or weed control at 100 ppm [8, 9]: 0%

CCCCCCCCCCNC(=O)C(S/C=C\C(=O)NCCCCCCCC)C(=O)OCC (stereo not drawn) [Example 26, N-n-octyl-cis-3-[2-(ethyl-N-n-decylmalonamido)thio]acrylamide]
MIC [1]: > 500 µg/mL
MIC [2]: > 500 µg/mL
pest or weed control at 200 ppm [3]: 100%
pest or weed control at 200 ppm [4]: 50%
pest or weed control at 200 ppm [5]: 0%
pest or weed control at 200 ppm [6]: 80%
pest or weed control at 200 ppm [7]: 50%
pest or weed control at 200 ppm [8, 9]: 75%

CCCCCCCCNC(=O)/C=C\SC(C(=O)NCc1ccc(Cl)cc1)C(=O)OCC (stereo not drawn) [Example 22, N-n-octyl-cis-3-{2-[ethyl-N-(4-chlorobenzyl)malonamido]thio}acrylamide]
MIC [1]: > 500 µg/mL
MIC [2]: > 500 µg/mL
pest or weed control at 200 ppm [3]: 100%
pest or weed control at 200 ppm [4]: 90%
pest or weed control at 200 ppm [5]: 0%
pest or weed control at 100 ppm [6]: 99%
pest or weed control at 200 ppm [7]: 37%
pest or weed control at 200 ppm [8, 9]: 50%

CCCCCCCCNC(=O)/C=C\SC(C(=O)NCc1cccc(OC)c1)C(=O)OCC (stereo not drawn) [Example 32, N-n-octyl-cis-3-{2-[ethyl-N-(3-methoxybenzyl)malonamido]thio}acrylamide]
MIC [1]: 500 µg/mL (≈ 1080 µM)
MIC [2]: > 500 µg/mL
pest or weed control at 200 ppm [3]: 99%
pest or weed control at 200 ppm [4]: 95%
pest or weed control at 200 ppm [5]: 0%
pest or weed control at 200 ppm [6]: 100%
pest or weed control at 200 ppm [7]: 0%
pest or weed control at 200 ppm [8, 9]: 75%

CCCCCCCCNC(=O)/C=C\SC(C(=O)NCc1cccc([N+](=O)[O-])c1)C(=O)OCC (stereo not drawn) [Example 65, N-n-octyl-cis-3-{2-[ethyl-N-(3-nitrobenzyl)malonamido]thio}acrylamide]
MIC [1]: > 250 µg/mL
MIC [2]: > 250 µg/mL
pest or weed control at 100 ppm [3]: 100%
pest or weed control at 100 ppm [4]: 0%
pest or weed control at 100 ppm [5]: 0%
pest or weed control at 100 ppm [6]: 80%
pest or weed control at 100 ppm [7]: 0%
pest or weed control at 100 ppm [8, 9]: 50%

CCCCCCCCNC(=O)/C=C\SC(C(=O)Nc1ccc(Cl)cc1C#N)C(=O)OCC (stereo not drawn) [Example 43, N-n-octyl-cis-3-{2-[ethyl-N-(2-cyano-4-chlorophenyl)malonamido]thio}acrylamide]
pest or weed control at 100 ppm [3]: 100%
pest or weed control at 100 ppm [4]: 100%
pest or weed control at 100 ppm [5]: 0%
pest or weed control at 100 ppm [6]: 80%
pest or weed control at 100 ppm [7]: 50%
pest or weed control at 100 ppm [8, 9]: 75%

CCCCCCCCNC(=O)/C=C\SC(C(=O)NC(C)CC)C(=O)OCC (stereo not drawn) [Example 16, N-n-octyl-cis-3-[2-(ethyl-N-(1-methylpropyl)malonamido)thio]acrylamide]
MIC [1]: > 500 µg/mL
MIC [2]: > 500 µg/mL
pest or weed control at 200 ppm [3]: 42%
pest or weed control at 200 ppm [4]: 40%
pest or weed control at 200 ppm [5]: 0%
pest or weed control at 200 ppm [6]: 47%
pest or weed control at 200 ppm [7]: 0%
pest or weed control at 200 ppm [8, 9]: 72%

CCCCCCCCNC(=O)/C=C\SC(C(=O)NCc1ccc(C)cc1)C(=O)OCC (stereo not drawn) [Example 33, N-n-octyl-cis-3-{2-[ethyl-N-(4-methylbenzyl)malonamido]thio}acrylamide]
MIC [1]: 250 to 500 µg/mL (≈ 557 to 1110 µM)
MIC [2]: > 500 µg/mL
pest or weed control at 200 ppm [3]: 99%
pest or weed control at 200 ppm [4]: 90%
pest or weed control at 200 ppm [5]: 0%
pest or weed control at 200 ppm [6]: 95%
pest or weed control at 200 ppm [7]: 0%
pest or weed control at 200 ppm [8, 9]: 0%

CCCCCCCCNC(=O)/C=C\SC(C(=O)NCc1ccccc1OC)C(=O)OCC (stereo not drawn) [Example 56, N-n-octyl-cis-3-{2-[ethyl-N-(2-methoxybenzyl)malonamido]thio}acrylamide]
MIC [1]: 250 µg/mL (≈ 538 µM)
MIC [2]: > 500 µg/mL
pest or weed control at 100 ppm [3]: 100%
pest or weed control at 100 ppm [4]: 90%
pest or weed control at 100 ppm [5]: 0%
pest or weed control at 100 ppm [6]: 80%
pest or weed control at 100 ppm [7]: 0%
pest or weed control at 100 ppm [8, 9]: 0%

CCCCCCCCNC(=O)/C=C\SC(C(=O)NCCC)C(=O)OCC (stereo not drawn) [Example 15, N-n-octyl-cis-3-[2-(ethyl-N-n-propylmalonamido)thio]acrylamide]
MIC [1]: 63 µg/mL (≈ 163 µM)
MIC [2]: > 500 µg/mL
pest or weed control at 200 ppm [3]: 100%
pest or weed control at 200 ppm [4]: 40%
pest or weed control at 5200 ppm [5]: 25%
pest or weed control at 200 ppm [6]: 89%
pest or weed control at 200 ppm [7]: 25%
pest or weed control at 200 ppm [8, 9]: 62%

CCCCCCCCNC(=O)/C=C\SC(C(=O)NCCCCCC)C(=O)OCC (stereo not drawn) [Example 17, N-n-octyl-cis-3-[2-(ethyl-N-n-hexylmalonamido)thio]acrylamide]
MIC [1]: > 500 µg/mL
MIC [2]: > 500 µg/mL
pest or weed control at 200 ppm [3]: 100%
pest or weed control at 200 ppm [4]: 0%
pest or weed control at 200 ppm [5]: 0%
pest or weed control at 200 ppm [6]: 90%
pest or weed control at 200 ppm [7]: 0%
pest or weed control at 200 ppm [8, 9]: 75%

CCCCCCCCNC(=O)/C=C\SC(C(=O)NCCCC)C(=O)OCC (stereo not drawn) [Example 13, N-n-octyl-cis-3-[2-(ethyl-N-n-butylmalonamido)thio]acrylamide]
pest or weed control at 200 ppm [3]: 99%
pest or weed control at 200 ppm [4]: 50%
pest or weed control at 200 ppm [5]: 0%
pest or weed control at 200 ppm [6]: 80%
pest or weed control at 200 ppm [7]: 75%
pest or weed control at 200 ppm [8, 9]: 50%

CCCCCCCCNC(=O)/C=C\SC(C(=O)NCCCCCC#N)C(=O)OCC (stereo not drawn) [Example 27, N-n-octyl-cis-3-{2-[ethyl-N-(5-cyanopentyl)malonamido]thio}acrylamide]
MIC [1]: > 500 µg/mL
MIC [2]: > 500 µg/mL
pest or weed control at 200 ppm [3]: 100%
pest or weed control at 200 ppm [4]: 98%
pest or weed control at 200 ppm [5]: 0%
pest or weed control at 200 ppm [6]: 100%
pest or weed control at 200 ppm [7]: 0%

CCCCCCCCNC(=O)/C=C\SC(C(=O)Nc1cc(Cl)ccc1OC)C(=O)OCC (stereo not drawn) [Example 46, N-n-octyl-cis-3-{2-[ethyl-N-(2-methoxy-5-chlorophenyl)malonamido]thio}acrylamide]
MIC [1]: 250 µg/mL (≈ 515 µM)
MIC [2]: > 500 µg/mL
pest or weed control at 100 ppm [4]: 80%
pest or weed control at 100 ppm [5]: 50%
pest or weed control at 100 ppm [6]: 0%
pest or weed control at 100 ppm [7]: 0%
pest or weed control at 100 ppm [8, 9]: 50%

CCCCCCCCNC(=O)/C=C\SC(C(=O)Nc1ccccn1)C(=O)OCC (stereo not drawn) [Example 44, N-n-octyl-cis-3-{2-[ethyl-N-(2-pyridyl)malonamido]thio}acrylamide]
MIC [1]: 250 µg/mL (≈ 593 µM)
MIC [2]: > 500 µg/mL
pest or weed control at 100 ppm [4]: 50%
pest or weed control at 100 ppm [5]: 0%
pest or weed control at 100 ppm [6]: 0%
pest or weed control at 100 ppm [7]: 0%
pest or weed control at 100 ppm [8, 9]: 75%

CCCCCCCCNC(=O)/C=C\SC(C(=O)NCC(C)C)C(=O)OCC (stereo not drawn) [Example 14, N-n-octyl-cis-3-[2-(ethyl-N-(2-methylpropyl)malonamido)thio]acrylamide]
pest or weed control at 200 ppm [3]: 95%
pest or weed control at 200 ppm [4]: 0%
pest or weed control at 200 ppm [5]: 0%
pest or weed control at 200 ppm [6]: 50%
pest or weed control at 200 ppm [7]: 75%
pest or weed control at 200 ppm [8, 9]: 50%
